{"source": "patent US6600091B1", "about": "“Enzymes responsible for the metabolism of zeatin” (The State of Oregon acting by and through the State Board …, priority 1998, dated 2003)", "key": {"[1]": {"target": "T1, Recombinant Zeatin O-glucosyltransferase (Phaseolus lunatus, UniProt Q9ZSK5)", "T1 construct": "the polypeptide encoded by the ORF plus the 5′ untranslated region and the α-peptide from the cloning vector; alpha-peptide encoded by the cloning vector (33 amino acids, pZL1/ZipLox); made in house; host or cells: E. coli BL21(DE3) pLysS", "T1 sequence (Q9ZSK5 1-459)": "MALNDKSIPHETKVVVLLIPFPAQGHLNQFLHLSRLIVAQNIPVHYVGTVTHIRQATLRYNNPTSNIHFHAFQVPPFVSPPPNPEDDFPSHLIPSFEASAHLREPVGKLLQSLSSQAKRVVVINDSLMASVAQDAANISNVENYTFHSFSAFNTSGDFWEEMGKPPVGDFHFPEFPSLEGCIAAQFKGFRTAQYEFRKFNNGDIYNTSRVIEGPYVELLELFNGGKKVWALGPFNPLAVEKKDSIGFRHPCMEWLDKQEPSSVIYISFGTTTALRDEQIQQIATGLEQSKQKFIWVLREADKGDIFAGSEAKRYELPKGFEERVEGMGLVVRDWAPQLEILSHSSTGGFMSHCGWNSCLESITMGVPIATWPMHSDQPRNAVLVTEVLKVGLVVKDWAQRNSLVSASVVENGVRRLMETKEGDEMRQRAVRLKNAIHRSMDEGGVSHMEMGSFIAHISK", "assay": "Cytokinin conversion assay with recombinant zeatin O-glucosyltransferase (14C-cytokinin + glycosyl donor, products separated by HPLC)", "assay_type": "biochemical, Phaseolous lunatus", "description": "Isolation of recombinant zeatin O-glucosyltransferase proteins. To obtain recombinant proteins, purified plasmids were transformed into Epicurian Coli BL21(DE3) pLysS Competent cells (Stratagene, LaJolla, Calif.) following the recommended protocol. Colonies were selected on AMP-LB plates. An individual colony was grown overnight in SOC-AMP media and 0.5 ml of the culture was used to inoculate 50 mls of SOC-AMP media. […] After 4 hours cells were collected and frozen at −80° C. overnight. Cells were lysed the next day by thawing and resuspending in 0.5 ml of 0.2 M Tris pH 7.5 containing 1 mg/ml of lysozyme. DNAase (1 μg/10 μl sample) was added after a 10-min. cycle of freeze-thaw at −80° C. Soluble proteins were collected after centrifugation. Recombinant proteins were further purified on a DEAE anion exchange column using the Bio-Rad Biologic liquid chromatography system.\n(§1) Assay for cytokinin conversion activity and analysis of reaction products. […] Briefly, ^14C-labeled cytokinins (specific activity of 24 mCi/mmol), glycosyl donor (3 mM of UDPG or UDPX), MgCl2 (0.05M) and ATP (0.5 mM) in 1 mM Tris, pH 8.0 were incubated with a specified amount of the recombinant protein at 27° C. […] The supernatant was concentrated to 100 μl in vacuo (Speed Vac Concentrator, Savant) and analyzed by HPLC using a reversed phase C18column.\n(§2) The aqueous buffer consisted of 0.2M acetic acid adjusted to pH 3.5 with TEA. Samples were eluted with a linear gradient of methanol (5-50% over 90 minutes) in TEA buffer. The flow rate was 1 mL/min. and 0.5 mL fractions were collected. […] Radioactivity in these fractions was determined in Ready-Gel scintillation fluid (Beckman) with a Beckman LS 7000 scintillation counter."}, "[2]": {"target": "T2, Recombinant Protein Encoded by the ORF of Zeatin O-xylosyltranferase (Phaseolus vulgaris, UniProt P56725)", "T2 construct": "the ORF of the gene was excised from the pGem-T vector (Promega) using the restriction enzymes Not1 and Sal1; made in house; host or cells: E. coli BL21(DE3) pLysS", "T2 sequence (P56725 1-454)": "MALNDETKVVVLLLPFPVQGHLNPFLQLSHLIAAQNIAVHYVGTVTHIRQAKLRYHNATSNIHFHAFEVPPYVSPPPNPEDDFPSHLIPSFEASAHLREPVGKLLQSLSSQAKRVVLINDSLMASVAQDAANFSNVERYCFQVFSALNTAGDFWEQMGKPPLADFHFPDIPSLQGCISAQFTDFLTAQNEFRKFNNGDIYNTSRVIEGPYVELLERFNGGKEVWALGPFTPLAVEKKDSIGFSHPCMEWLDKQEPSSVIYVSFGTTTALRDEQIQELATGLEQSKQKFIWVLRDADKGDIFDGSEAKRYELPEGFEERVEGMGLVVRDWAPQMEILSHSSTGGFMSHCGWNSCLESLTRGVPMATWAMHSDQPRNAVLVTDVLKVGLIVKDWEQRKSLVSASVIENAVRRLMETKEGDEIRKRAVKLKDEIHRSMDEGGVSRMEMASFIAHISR", "assay": "Cytokinin conversion assay with recombinant protein encoded by the ORF of zeatin O-xylosyltransferase (radio-labeled cytokinin + glycosyl donor, HPLC)", "assay_type": "biochemical, Phaseolous vulgaris", "settings": "for Product (%) / Product CPM / Substrate Left (%) / Substrate Left CPM: 125 μl protein from culture supernatant, 4 hrs", "text": "Isolation of recombinant zeatin O-xylosyltransferase proteins. Zeatin O-xylosyltransferase protein was purified using the same techniques as described above. Briefly, the coding sequences were ligated into an IPTG inducible plasmid which was transformed into Epicurian Coli BL21(DE3) pLysS Competent cells (Stratagene, LaJolla, Calif.). IPTG was then used to induce protein. Cells were subsequently lysed and the protein was separated out through the use of ion exchange chromatography.\nas §1, §2\nIsolation and authentication of zeatin O-xylosyltransferase cDNA clones. To assess the enzyme activity of the protein encoded by zeatin O-xylosyltransferase, the ORF of the gene was excised from the pGem-T vector (Promega) using the restriction enzymes Not1 and Sal1. The resulting fragment was then ligated into the Not1/Sal1 site of the pZipLox plasmid."}, "[3]": {"settings": "glycosyl donor UDPG, B: DEAE-purified proteins (4 μg), approx. 0.5 nmole 14C-cytokinin"}, "[4]": {"settings": "glycosyl donor UDPG, A: 200 μl supernatant from lysed cells, approx. 1 nmole 14C-labeled zeatin, 2 hr"}, "[5]": {"settings": "glycosyl donor UDPX, A: 200 μl supernatant from lysed cells, approx. 1 nmole 14C-labeled zeatin, 2 hr"}}, "data": [{"smiles": "CC(CO)CCNc1ncnc2nc[nH]c12", "note": "(stereo not drawn) [DHZ, dihydrozeatin]", "values": [{"measurement": "Formation of O-glucosyldihydrozeatin (in words)", "setting": "[1]; DEAE-column purified recombinant protein", "value": "trace"}, {"measurement": "Product (%)", "setting": "[1]; [3]", "value": 1, "unit": "%"}, {"measurement": "Product CPM", "setting": "[1]; [3]", "value": 329, "unit": "CPM"}, {"measurement": "Substrate Left (%)", "setting": "[1]; [3]", "value": 99, "unit": "%"}, {"measurement": "Substrate Left CPM", "setting": "[1]; [3]", "value": 24178, "unit": "CPM"}, {"measurement": "Product (%)", "setting": "[2]; glycosyl donor UDPX", "value": 78, "unit": "%"}, {"measurement": "Product CPM", "setting": "[2]; glycosyl donor UDPX", "value": 33237, "unit": "CPM"}, {"measurement": "Substrate Left (%)", "setting": "[2]; glycosyl donor UDPX", "value": 22, "unit": "%"}, {"measurement": "Substrate Left CPM", "setting": "[2]; glycosyl donor UDPX", "value": 9244, "unit": "CPM"}]}, {"smiles": "C/C(=C\\CNc1ncnc2c1ncn2[C@@H]1O[C@H](CO)[C@@H](O)[C@H]1O)CO", "note": "[RZ, ribosylzeatin]", "values": [{"measurement": "Substrate Left (%)", "setting": "[2]; glycosyl donor UDPX", "value": 100, "unit": "%"}, {"measurement": "Substrate Left CPM", "setting": "[2]; glycosyl donor UDPX", "value": 39238, "unit": "CPM"}]}, {"smiles": "C/C(=C\\CNc1ncnc2[nH]cnc12)CO", "note": "[Z, trans-zeatin]", "values": [{"measurement": "Product (%)", "setting": "[1]; [4]", "value": 100, "unit": "%"}, {"measurement": "Product CPM", "setting": "[1]; [4]", "value": 39715, "unit": "CPM"}, {"measurement": "Substrate Left (%)", "setting": "[1]; [4]", "value": "0 (0%)"}, {"measurement": "Substrate Left CPM", "setting": "[1]; [4]", "value": "0 (0%) CPM"}, {"measurement": "Product (%)", "setting": "[1]; [3]", "value": 14, "unit": "%"}, {"measurement": "Product CPM", "setting": "[1]; [3]", "value": 3731, "unit": "CPM"}, {"measurement": "Substrate Left (%)", "setting": "[1]; [3]", "value": 86, "unit": "%"}, {"measurement": "Substrate Left CPM", "setting": "[1]; [3]", "value": 23115, "unit": "CPM"}, {"measurement": "Conversion to O-glucosylzeatin (in words)", "setting": "[1]; glycosyl donor UDPG, supernatant with recombinant protein, listed as 14C-zeatin", "value": "efficiently converted"}, {"measurement": "Product (%)", "setting": "[1]; [5]", "value": 18, "unit": "%"}, {"measurement": "Product CPM", "setting": "[1]; [5]", "value": 4956, "unit": "CPM"}, {"measurement": "Substrate Left (%)", "setting": "[1]; [5]", "value": 82, "unit": "%"}, {"measurement": "Substrate Left CPM", "setting": "[1]; [5]", "value": 23078, "unit": "CPM"}, {"measurement": "Conversion of zeatin (in words)", "setting": "[2]; UDPG as the sugar donor", "value": "no detectable conversion"}, {"measurement": "Substrate Left (%)", "setting": "[2]; glycosyl donor UDPG", "value": 100, "unit": "%"}, {"measurement": "Substrate Left CPM", "setting": "[2]; glycosyl donor UDPG", "value": 41679, "unit": "CPM"}, {"measurement": "Product (%)", "setting": "[2]; glycosyl donor UDPX", "value": 82, "unit": "%"}, {"measurement": "Product CPM", "setting": "[2]; glycosyl donor UDPX", "value": 35838, "unit": "CPM"}, {"measurement": "Substrate Left (%)", "setting": "[2]; glycosyl donor UDPX", "value": 18, "unit": "%"}, {"measurement": "Substrate Left CPM", "setting": "[2]; glycosyl donor UDPX", "value": 7768, "unit": "CPM"}]}, {"smiles": "C/C(=C/CNc1ncnc2nc[nH]c12)CO", "note": "[cis-Z, Cis-zeatin]", "values": [{"measurement": "Substrate Left (%)", "setting": "[2]; glycosyl donor UDPX", "value": 100, "unit": "%"}, {"measurement": "Substrate Left CPM", "setting": "[2]; glycosyl donor UDPX", "value": 29460, "unit": "CPM"}]}]}
